Measurements reported in patent US12186435B2, “Sol-gel/hydrogel therapeutic delivery system and methods thereof” (ALBERT EINSTEIN COLLEGE OF MEDICINE, priority 2017, dated 2025).
“Also recorded” adds a separate entry of the source. Values belong to the compound of their own block, whether it stands above or below them.

Experiments:
[1] = Curcumin release from particles into ethanol or methanol; format: physicochemical
From the text: FIG. 2. A comparison of release profiles form curcumin loaded nanoparticles. “Brinker” (Br) is the high-density sol-gel that took 7 days to gel and curcumin added after the gelation is complete. “9d dry” is the original formulation air dried for 9 days. Release is of suspended particles into ethanol or methanol. Plots from top to bottom, respectively: EtOH original, EtOH 9d dry, MeOH Brinker, and EtOH Brinker.
Release from Nanoparticles was Made Via: • the Br(Brinker) method where the curcumin is loaded into the empty Br sol-gel block (slow gelation protocol), • The original hydrogel platform where the curcumin is mixed in the initial pre-condensation mixture which gels much more rapidly than the Br sol-gels, • Curcumin loaded in the original fast gelling platform but the resulting curcumin containing sol-gel is air dried for nine days (to promote enhanced density-decreasing pore size.
The effect of added PEG400 on release rates of NACSNO (SNO derivative of N-acetylcysteine) and curcumin from nanoparticles generated using the new block gel protocol (Universal Drug Delivery Platform). • New protocol in which NACSNO and curcumin are infused into a gel block prepared from TMOS using the standard Brinker method for gelation. Once the gel is loaded with the deliverables, the gel is lyophilized and then milled to produce the loaded nanoparticles. • Four separate gels are prepared for each of the deliverables • One gel has no added PEG whereas the other three have varying amounts of added PEG400. The percentage of added PEG shown in the figures refers to the percentage of PEG added compared to what was added in our original protocol.

[2] = Release of NACSNO and GSNO from particles into aqueous buffer; format: physicochemical; conditions: for release from original rapid gelation platform: deliverable added before condensation, aqueous buffer
[3] = Release of fluorescent labeled lipids from Br1 particles, with or without 3% octyl-TMOS doping; format: physicochemical
From the text: FIG. 13. Effects of doping del with 3% octyl-TMOS on release of lipids. Plots from top to bottom, respectively: Cholesterol-BDP, Chol/3% Octyl, Palmitate-NBD, and Palm/3% Octyl.
Fluorescent labeled cholesterol and palmytic acid were used to show both loading and release. Procyanidine is a potent antioxidant that is being evaluated for use in the treatment of osteoarthritis.
Effects of Doping Del with 3% Octyl-TMOS on Release of Lipids (FIG. 13)
3% octyl doped gel changed cholesterol release(from 80% released down to 55% released), but had no effect on palmitate release.

[4] = Evans Blue release from particles in water; format: physicochemical; conditions: for release from amine (APTS) doped particles: hydrogel doped with amine groups
Experimental: FIGS. 18A-18B. Curcumin (A) and (B) Evans Blue APTS doped gels. The gels were doped with 0.3% APTS. Rate of condensation changed by mM NaOH concentration (75, 60, 30, 12) added prior to condensation step. Increasing gel times for decreasing amount of added NaOH: (2 mins, 30 mins, 15 hours, 1.5 days: 75, 60, 30, 12 mM NaOH). Curcumin release in ethanol; Evans blue release in water. Both plots from top to bottom, respectively, at left side of plots: 75 mM, 60 mM, 30 mM and 12 mM.
Amines are incorporated by mixing hydrolyzed APTS with hydrolyzed TMOS. The resulting sol-gel monolith is loaded with the water soluble dye Evans Blue which has four negatively charged groups.

[5] = in methanol
[6] = gel block doped with octyl group

SMILES: CC(=O)N[C@@H](CSN=O)C(=O)O [NACSNO, S-nitrosoN-acetylcysteine]
release from original rapid gelation platform [2]: almost immediate release | effect of octyl group doping on release [2, 6]: slows release

SMILES: Cc1cc(-c2ccc(/N=N/c3ccc4c(S(=O)(=O)O)cc(S(=O)(=O)O)c(N)c4c3O)c(C)c2)ccc1/N=N/c1ccc2c(S(=O)(=O)O)cc(S(=O)(=O)O)c(N)c2c1O [Evans Blue]
effect of increasing addition of base prior to condensation on release ([4]; Br sol-gels doped with APTS): increase in release | release from amine (APTS) doped particles [4]: slowed by several orders or magnitude; also recorded: substantially slows release | release from amine (APTS) doped particles ([4]; listed as Evans blue): slows | release from undoped particles ([4]; without amine doping, aqueous environment): immediate and complete; also recorded: near instantaneous

SMILES: COc1ccc2cc([C@H](C)C(=O)O)ccc2c1 [Naproxen]
release from new protocol nanoparticles [5]: slow release

SMILES: N[C@@H](CCC(=O)N[C@@H](CSN=O)C(=O)NCC(=O)O)C(=O)O [GSNO, S-nitrosothiol-GSH]
release from original rapid gelation platform [2]: rapid release | stability in original rapid gelation platform ([2]; prepared in original rapid gelation platform): unstable

Second part, the compound after the results:

effect of increasing addition of base prior to condensation on release ([1]; Br sol-gels doped with APTS): increase in release | effect of octyl group doping on release [1, 6]: slows release | effect of APTS on release ([1]; slow gel, >1 day to form): increased | release compared to the original platform and its air dried version ([1]; slow gelling Br protocol, curcumin loaded after gelation): dramatic slow down in release | effect of increasing pH in condensation step on release ([1]; sol-gel doped with 25% PEG400, release in ethanol): increases release
SMILES: COc1cc(/C=C/C(=O)CC(=O)/C=C/c2ccc(O)c(OC)c2)ccc1O [curcumin, Curcumin]

effect of 3% octyl doping on release ([3]; 3% octyl doped gel vs undoped): no effect
SMILES: CCCCCCCCCCCCCCCC(=O)O [palmitate]

cholesterol release, released ([3]; 3% octyl doped gel): 55% | cholesterol release, released ([3]; gel without octyl doping (Br1)): 80%
SMILES: CC(C)CCC[C@@H](C)[C@H]1CC[C@H]2[C@@H]3CC=C4C[C@@H](O)CC[C@]4(C)[C@H]3CC[C@]12C [cholesterol]
